Laboratory results from patent publication US8802623B2 (priority 2009, dated 2014).

Tests used:
[1] = system: IAV A/PR/8/34; design: species or system C57BL/6 mice; settings: mouse, in vivo
[2] = system: IAV A/PR/8/34; design: species or system C57BL/6 mice; settings: mouse, in vivo; remark: listed apart in the source
[3] = system: A549 cells infected with IAV A/PR/8/34; type: cell-based, human
[4] = system: IAV A/PR/8/34; type: cell-based, IAV A/PR/8/34 (H1N1)
[5] = mouse, in vivo

Compound: CC(C)c1ccc(Cn2ccc3c4c(N)nc(NC5CC5)nc4ccc32)cc1 [SCH79797]
- protection from IAV induced death, different concentrations [1]: protected mice from IAV induced death in a dose-dependent manner
- protection from IAV-induced death at different pfu/mice [1]: protected mice from IAV-induced death
- infectious virus load in lungs [2]: significantly decreased infectious virus load

Compound: H-Thr-Phe-Leu-Leu-Arg-NH2 [TFLLR-NH2]
- IL-6 release [3]: significantly increased
- IL-8 release [3]: significantly increased
- RANTES release [3]: significantly increased
- virus production in IAV-infected A549 cells [4]: produced more viruses
- side effect in uninfected mice (survival, weight) [5]: not sensitive
- IAV-induced death in mice [1]: increased IAV-induced death
- infectious virus loads in lungs [2]: significantly increased infectious virus loads
